# Measured values reported in patent US20250179024A1, “AMYLOID AND ASSOCIATED PATHOLOGY MODULATORS AND METHODS THEREOF” (Jawaharlal Nehru Centre for Advanced Scientific Research, priority 2022, published 2025).
# Columns and labels:
# [1] = biological target: T1, Aβ (Homo sapiens, UniProt P05067); assay: AFM imaging of Aβ samples; conditions: Aβ 10 μM, NMIs 20 μM; FIG. 1C
# T1 construct: is a 42 amino acid proteolytic product from the amyloid precursor protein; purchased Invitrogen
# Procedure: AFM imaging was done to understand the morphological characteristics of Aβ and NMI treated samples. The samples from Aβ aggregation inhibition and dissolution studies were used for AFM imaging. 25 μL of sample was drop-casted on freshly cleaved mica substrate. The Aβ samples were allowed to adhere to substrate surface for 15 min, washed with filtered MiliQ water and air dried. The samples were imaged in Scan assist Air mode in Bioscope resolve AFM system (Bruker). The images were processed and analyzed using NanoScope analysis software. […] It has been observed that the oligomers are a highly toxic species compared to Aβ fibrillar aggregates. The ability of NMIs (M3) to inhibit the formation of Aβ oligomers was assessed by dot blot assay. Aβ peptide (10 μM) was incubated with NMIs at 4° C. for 24 h followed by probing with A11 oligomer-specific antibody. […] Native PAGE and western blot analysis was carried out to understand the size distribution of Aβ aggregated species. […] In order to analyse the higher order aggregates not permeable in the gel matrix and the morphological characteristics, Aβ samples were subjected to atomic force microscopy (AFM) imaging.
# [2] = Metal chelation by UV-visible absorbance and fluorescence spectra; type: physicochemical; conditions: NMIs 20 μM, Cu or Zn 2.5 to 40 μM
# Text: The compounds of the present disclosure (NMIs) were designed to chelate with metals (Cu and Zn) and alleviate the metal-dependent Aβ toxicity. […] The change in absorbance and fluorescence spectra of NMIs were monitored to understand the interaction with Cu(II) and Zn(II). […] The fluorescence intensity of M3 at 525 nm decreased with the increasing concentration of Cu(II) or Zn(II) (FIGS. 6(A & B)).
# [3] = biological target: T2, Aβ oligomers (Homo sapiens, UniProt P05067); assay: Dot blot assay of Aβ oligomer inhibition (A11 antibody); type: biochemical; conditions: Aβ 10 μM, NMIs 20 μM, 4° C., 24 h
# T2 construct: is a 42 amino acid proteolytic product from the amyloid precursor protein; purchased Invitrogen
# Procedure: Aggregation modulation by toxic Aβ aggregates were assessed and were quantified by dot blot assay. Aβ peptide (10 μM) was dissolved in phosphate buffered saline (PBS, 10 mM, pH 7.4), incubated alone and with NMIs (20 μM) at 37° C. for 48 h. For concentration dependent inhibition, 10 μM Aβ peptide was incubated with 1, 2, 5, 10 and 20 μM of NMIs and incubated. Samples for oligomer inhibition studies were prepared by incubating Aβ alone and with NMIs at 4° C. for 24 and subjected to dot blot analysis. For dissolution studies, Aβ peptide alone was incubated in PBS for 48 h to prepare fibrils and then incubated with NMIs further for 48 h. For dot blot experiment, 5 μL of sample was blotted on activated PVDF (polyvinylidene fluoride) membrane in triplicates and air dried. The membrane was blocked with skimmed milk powder for 1 h at room temperature. The blot paper was washed with tris-buffered saline with 0.01% Tween 20 (TBST) three times for 5 min. Blot paper was treated with fibril specific OC primary antibody (Rabbit, 1:1000 dilution) overnight at 4° C. For oligomers blot A11 anti-oligomer antibody (Rabbit 1:1000) was used. […] Blots were analyzed and quantified by ImageJ software. […] The ability of NMIs (M3) to inhibit the formation of Aβ oligomers was assessed by dot blot assay. […]
# [4] = biological target: T3, preformed Aβ fibrillar aggregates (Homo sapiens, UniProt P05067); assay: Dot blot assay of dissolution of preformed Aβ fibrillar aggregates; type: biochemical; conditions: Aβ aggregates 10 μM, NMIs 20 μM, 48 h
# T3 construct: is a 42 amino acid proteolytic product from the amyloid precursor protein; purchased Invitrogen
# Procedure: Aggregation modulation by toxic Aβ aggregates were assessed and were quantified by dot blot assay. Aβ peptide (10 μM) was dissolved in phosphate buffered saline (PBS, 10 mM, pH 7.4), incubated alone and with NMIs (20 μM) at 37° C. for 48 h. For concentration dependent inhibition, 10 μM Aβ peptide was incubated with 1, 2, 5, 10 and 20 μM of NMIs and incubated. Samples for oligomer inhibition studies were prepared by incubating Aβ alone and with NMIs at 4° C. for 24 and subjected to dot blot analysis. For dissolution studies, Aβ peptide alone was incubated in PBS for 48 h to prepare fibrils and then incubated with NMIs further for 48 h. For dot blot experiment, 5 μL of sample was blotted on activated PVDF (polyvinylidene fluoride) membrane in triplicates and air dried. The membrane was blocked with skimmed milk powder for 1 h at room temperature. The blot paper was washed with tris-buffered saline with 0.01% Tween 20 (TBST) three times for 5 min. Blot paper was treated with fibril specific OC primary antibody (Rabbit, 1:1000 dilution) overnight at 4° C. For oligomers blot A11 anti-oligomer antibody (Rabbit 1:1000) was used. Blot was washed thrice with TBST and treated with HRP-conjugated antirabbit secondary antibody (1:5000 dilutions) for 1 h at room temperature. The bolt was washed thrice for 5 min with TBST and developed with ECL reagent (Biorad) and imaged with ChemiDoc BioRad gel documentation system in autoexposure mode. Blots were analyzed and quantified by ImageJ software. The fibrillar aggregates were formed by incubating Aβ peptide (10 μM) in PBS (pH 7.4) at 37° C. for 48 h. The aggregate samples were treated with NMIs (20 μM) for 48 h followed by dot blot analysis. […] These studies confirmed that M3 as the potential candidate to dissolve Aβ fibrillar aggregates to possibly nontoxic species.
# [5] = biological target: T4, Aβ fibrils (Homo sapiens, UniProt P05067); assay: Dot blot assay of Aβ fibrillar aggregation inhibition (OC antibody); type: biochemical; conditions: Aβ 10 μM, NMIs 20 μM, PBS pH 7.4, 37° C., 48 h
# T4 construct: is a 42 amino acid proteolytic product from the amyloid precursor protein; purchased Invitrogen
# Procedure: Aggregation modulation by toxic Aβ aggregates were assessed and were quantified by dot blot assay. Aβ peptide (10 μM) was dissolved in phosphate buffered saline (PBS, 10 mM, pH 7.4), incubated alone and with NMIs (20 μM) at 37° C. for 48 h. For concentration dependent inhibition, 10 μM Aβ peptide was incubated with 1, 2, 5, 10 and 20 μM of NMIs and incubated. Samples for oligomer inhibition studies were prepared by incubating Aβ alone and with NMIs at 4° C. for 24 and subjected to dot blot analysis. For dissolution studies, Aβ peptide alone was incubated in PBS for 48 h to prepare fibrils and then incubated with NMIs further for 48 h. For dot blot experiment, 5 μL of sample was blotted on activated PVDF (polyvinylidene fluoride) membrane in triplicates and air dried. The membrane was blocked with skimmed milk powder for 1 h at room temperature. The blot paper was washed with tris-buffered saline with 0.01% Tween 20 (TBST) three times for 5 min. Blot paper was treated with fibril specific OC primary antibody (Rabbit, 1:1000 dilution) overnight at 4° C. For oligomers blot A11 anti-oligomer antibody (Rabbit 1:1000) was used. Blot was washed thrice with TBST and treated with HRP-conjugated antirabbit secondary antibody (1:5000 dilutions) for 1 h at room temperature. The bolt was washed thrice for 5 min with TBST and developed with ECL reagent (Biorad) and imaged with ChemiDoc BioRad gel documentation system in autoexposure mode. Blots were analyzed and quantified by ImageJ software. The ability of the NMIs, the compounds of the present disclosure M1-M4 to inhibit Aβ aggregation and dissolve the preformed fibrillar aggregates was evaluated by dot blot assay as explained in Example 2 above. Aβ (10 μM) was incubated alone and with NMIs (20 μM) in phosphate buffer saline (PBS, 10 mM and pH 7.4) at 37° C. for 48 h to form Aβ fibrillar aggregates. The samples were blotted and probed with fibril-selective OC antibody (rabbit anti-human amyloid fibrils). […] M3 was further assessed for inhibitory effect at lower concentrations. […] It has been observed that the oligomers are a highly toxic species compared to Aβ fibrillar aggregates. The ability of NMIs (M3) to inhibit the formation of Aβ oligomers was assessed by dot blot assay. Aβ peptide (10 μM) was incubated with NMIs at 4° C. for 24 h followed by probing with A11 oligomer-specific antibody. […] Native PAGE and western blot analysis was carried out to understand the size distribution of Aβ aggregated species. […] In order to analyse the higher order aggregates not permeable in the gel matrix and the morphological characteristics, Aβ samples were subjected to atomic force microscopy (AFM) imaging.
# [6] = biological target: T5, Aβ in the presence of Zn (II) (Homo sapiens, UniProt P05067); assay: Zn-dependent Aβ aggregation, native PAGE and western blot; type: biochemical; conditions: Aβ 10 μM, Zn (II) 20 μM, NMIs 20 μM, 37° C., 48 h
# T5 construct: is a 42 amino acid proteolytic product from the amyloid precursor protein; purchased Invitrogen
# Procedure: The samples were prepared by incubating Aβ42 with specific concentration of NMI compounds of present disclosure and metal ions for 48 h and then subjected to 6% native polyacrylamide gel electrophoresis (Native-PAGE) in tris-glycine buffer. The lower molecular weight aggregates permeabilized through the gel and resolved in the gel. Higher molecular aggregates stuck in the upper part of wells and potentially carried in gel. Then the protein was transferred to PVDF membrane for 4 h at cold condition maintained using ice cold transfer buffer and immersing the transfer apparatus in ice. Then the blots were continued similar to dot blots.
# The absorbance and fluorescence spectroscopy studies together with mass spectrometry data confirmed the selective Cu (II) or Zn (II) chelation property of M1 and M3. […] Aβ (10 μM) was incubated in the presence of Cu (II) or Zn (II) (20 μM) with NMIs at 37° C. for 48 h and the samples were subjected to native PAGE and western blot analysis. […] Modulation of Zn-dependent Aβ aggregation by M4 was attributed to its two Zn (II) chelation centres. M3 with dopamine and DPA moieties effectively modulated both Cu (II) and Zn (II)-dependent Aβ aggregation. The effect of NMIs on the morphological outcome of metal-dependent Aβ aggregation was visualized by AFM imaging (FIGS. 1E and 1F). Aβ in the presence of Cu (II) and Zn (II) formed dense and thick fibrils.
# T3 sequence (P05067 672-713 limits assumed): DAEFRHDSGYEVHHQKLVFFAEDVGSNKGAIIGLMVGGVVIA
# T4 sequence (P05067 672-713 limits assumed): as above
# T1 sequence (P05067 672-713 limits assumed): as above
# T5 sequence (P05067 672-713 limits assumed): as above
# T2 sequence (P05067 672-713 limits assumed): as above
"morphology of Aβ sample, aggregation inhibition [1]","interaction with Cu (II) and Zn (II), change in absorbance spectra [2]",oligomer inhibition [3],dissolution efficiency [4],inhibition of the formation of Aβ fibrils [5],Zn-dependent Aβ aggregation [6],SMILES
fibrillar structures,no significant change in the spectra,40%,25%,~11%,–,"CN(C)c1ccc2c3c(cccc13)C(=O)N(CCN(Cc1ccccn1)Cc1ccccn1)C2=O [M2, 2-(2-(bis(pyridin-2-ylmethyl)amino)ethyl)-6-(dimethylamino)-1H-benzo[de]isoquinoline-1,3(2H)-dione]"
fibrillar structures,no significant change in the spectra,–,43%,~11%,reduce Zn-dependent Aβ aggregation,"O=C1c2cccc3c(N(Cc4ccccn4)Cc4ccccn4)ccc(c23)C(=O)N1CCN(Cc1ccccn1)Cc1ccccn1 [M4, 6-(bis(pyridin-2-ylmethyl)amino)-2-(2-(bis(pyridin-2-ylmethyl)amino)ethyl)-1H-benzo[de]isoquinoline-1,3(2H)-dione]"
